Like-named read-outs stand apart in the source and are kept apart here. *1 amine or outer side, *2 acyl side, *3 side chain or, on linkers, in order; H or OH if unused. Where a SMILES comes first, the peptide text is derived from it. Bridges are numbered along the chain shown (N, C = ends). The star is where a group is joined. C20 diacid = O=C(O)CCCCCCCCCCCCCCCCCCC(=O)*; γGlu = O=C(O)[C@H](CCC(=O)[*:2])N[*:1]; Trx = NC[C@H]1CC[C@H](C(=O)O)CC1; GABA = NCCCC(=O)O
Molecular target: T1, Amylin 3(a) receptor (human calcitonin receptor (CTa) and RAMP-3) (Homo sapiens, UniProt O60896+P30988)
T1 construct: expressed in transfected cells; host or cells: BHK570 cells, stably transfected with a CRE-luciferase reporter
Experiment: Luciferase assay (III), BHK Amylin 3(a)//CRE-luc cells
Format: cell-based
Settings: BHK cells with Amylin 3(a) receptor and CRE luciferase reporter, 4 hours incubation
Method in brief: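 BHK570 cells stably expressing CTa, RAMP-3 and a CRE-luciferase reporter, seeded at about 20,000 cells/well and grown overnight. Cells were exposed to standard or sample for 4 h at 37° C in phenol red-free DMEM with 10% FBS and 10 mM Hepes, pH 7,4. Luminescence was read after 30 min LucLite at room temperature.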

T1 sequence (O60896 24-148): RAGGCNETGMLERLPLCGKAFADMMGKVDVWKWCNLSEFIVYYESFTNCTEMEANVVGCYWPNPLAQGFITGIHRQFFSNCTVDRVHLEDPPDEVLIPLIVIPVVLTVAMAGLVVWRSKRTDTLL
T1 sequence (P30988 25-474): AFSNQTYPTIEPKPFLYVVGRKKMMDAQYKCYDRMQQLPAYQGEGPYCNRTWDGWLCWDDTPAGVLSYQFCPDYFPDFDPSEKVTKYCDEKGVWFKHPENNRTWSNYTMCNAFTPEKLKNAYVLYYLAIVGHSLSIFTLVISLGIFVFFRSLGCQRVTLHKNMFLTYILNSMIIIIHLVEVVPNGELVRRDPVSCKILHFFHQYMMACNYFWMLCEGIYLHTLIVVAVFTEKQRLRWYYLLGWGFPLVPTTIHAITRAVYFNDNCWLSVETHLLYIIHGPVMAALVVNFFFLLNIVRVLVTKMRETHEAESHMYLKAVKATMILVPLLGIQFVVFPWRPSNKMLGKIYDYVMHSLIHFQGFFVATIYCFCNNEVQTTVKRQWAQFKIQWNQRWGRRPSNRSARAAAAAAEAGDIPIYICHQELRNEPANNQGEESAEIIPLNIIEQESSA

SMILES | EC50 (read-out: Potency Luciferase) [nM] | EC50 (Potency Luciferase) [nM]
CC[C@H](C)[C@H](NC(=O)[C@@H]1CCCN1C(=O)CNC(=O)[C@H](Cc1ccccc1)NC(=O)[C@H](CC(N)=O)NC(=O)[C@H](CC(N)=O)NC(=O)[C@H](CO)NC(=O)[C@H](CO)NC(=O)[C@H](Cc1c[nH]cn1)NC(=O)[C@H](Cc1c[nH]cn1)NC(=O)[C@H](CC(C)C)NC(=O)[C@H](Cc1ccccc1)NC(=O)[C@H](CC(N)=O)NC(=O)[C@H](C)NC(=O)[C@H](CC(C)C)NC(=O)[C@H](CCCNC(=N)N)NC(=O)[C@H](CCC(N)=O)NC(=O)[C@@H](NC(=O)[C@H](C)NC(=O)[C@@H]1CSSC[C@H](NC(=O)[C@H](Cc2c[nH]cn2)NC(=O)CC[C@H](NC(=O)[C@H]2CC[C@H](CNC(=O)CCCCCCCCCCCCCCCCCCC(=O)O)CC2)C(=O)O)C(=O)N[C@@H](CC(N)=O)C(=O)N[C@@H]([C@@H](C)O)C(=O)N[C@@H](C)C(=O)N[C@@H]([C@@H](C)O)C(=O)N1)[C@@H](C)O)C(=O)N[C@@H](CC(C)C)C(=O)N1CCC[C@H]1C(=O)N1CCC[C@H]1C(=O)N[C@H](C(=O)N[C@@H](CC(N)=O)C(=O)N[C@H](C(=O)NCC(=O)N[C@@H](CO)C(=O)N[C@@H](CC(N)=O)C(=O)N[C@H](C(=O)N[C@@H](Cc1ccc(O)cc1)C(N)=O)[C@@H](C)O)C(C)C)[C@@H](C)O [Example 33, N-alpha-[4-Carboxy-4-({4-[(19-carboxynonadecanoylamino)methyl]transcyclohexanecarbonyl}amino)butyryl]-[His1,His17]-pramlintide] ({C20 diacid-Trx-γGlu}-HCNTATCATQRLANFLHHSSNNFGPILPPTNVGSNTY-NH2; disulfide 2-7; C-terminus assumed) | – | 0.1
CC[C@H](C)[C@H](NC(=O)[C@@H]1CCCN1C(=O)CNC(=O)[C@H](Cc1ccccc1)NC(=O)[C@H](CC(N)=O)NC(=O)[C@H](CC(N)=O)NC(=O)[C@H](CO)NC(=O)[C@H](CO)NC(=O)[C@H](Cc1c[nH]cn1)NC(=O)CNC(=O)[C@H](CC(C)C)NC(=O)[C@H](Cc1ccccc1)NC(=O)[C@H](CC(N)=O)NC(=O)[C@H](C)NC(=O)[C@H](CC(C)C)NC(=O)[C@H](CCCNC(=N)N)NC(=O)[C@H](CCC(N)=O)NC(=O)[C@@H](NC(=O)[C@H](C)NC(=O)[C@@H]1CSSC[C@H](NC(=O)CC[C@H](NC(=O)CCCCCCCCCCCCCCCCCCC(=O)O)C(=O)O)C(=O)N[C@@H](CC(N)=O)C(=O)N[C@@H]([C@@H](C)O)C(=O)N[C@@H](C)C(=O)N[C@@H]([C@@H](C)O)C(=O)N1)[C@@H](C)O)C(=O)N[C@@H](CC(C)C)C(=O)N1CCC[C@H]1C(=O)N1CCC[C@H]1C(=O)N[C@H](C(=O)N[C@@H](CC(N)=O)C(=O)N[C@H](C(=O)NCC(=O)N[C@@H](CO)C(=O)N[C@@H](CC(N)=O)C(=O)N[C@H](C(=O)N[C@@H](Cc1ccc(O)cc1)C(N)=O)[C@@H](C)O)C(C)C)[C@@H](C)O [Example 13, N-alpha-[(S)-4-Carboxy-4-(19-carboxynonadecanoylamino)butyryl]-[Gly17]-pramlintide (2-37)] ({C20 diacid-γGlu}-CNTATCATQRLANFLGHSSNNFGPILPPTNVGSNTY-NH2; disulfide 1-6) | 0.4 | –

More lines, main results first:

EC50 (read-out: Potency Luciferase) [nM] | SMILES | EC50 (Potency Luciferase) [nM]
0.03 | CC[C@H](C)[C@H](NC(=O)[C@@H]1CCCN1C(=O)CNC(=O)[C@H](Cc1ccccc1)NC(=O)[C@H](CC(N)=O)NC(=O)[C@H](CC(N)=O)NC(=O)[C@H](CO)NC(=O)[C@H](CO)NC(=O)[C@H](Cc1c[nH]cn1)NC(=O)[C@H](CCCNC(=N)N)NC(=O)[C@H](CC(C)C)NC(=O)[C@H](Cc1ccccc1)NC(=O)[C@H](CC(N)=O)NC(=O)[C@H](C)NC(=O)[C@H](CC(C)C)NC(=O)[C@H](CCCNC(=N)N)NC(=O)[C@H](CCC(N)=O)NC(=O)[C@@H](NC(=O)[C@H](C)NC(=O)[C@@H]1CSSC[C@H](NC(=O)[C@H](CCCCN)NC(=O)[C@H](CCCNC(=N)N)NC(=O)CCCNC(=O)CCCCCCCCCCCCCCCCCCC(=O)O)C(=O)N[C@@H](CC(N)=O)C(=O)N[C@@H]([C@@H](C)O)C(=O)N[C@@H](C)C(=O)N[C@@H]([C@@H](C)O)C(=O)N1)[C@@H](C)O)C(=O)N[C@@H](CC(C)C)C(=O)N1CCC[C@H]1C(=O)N1CCC[C@H]1C(=O)N[C@H](C(=O)N[C@@H](CC(N)=O)C(=O)N[C@H](C(=O)NCC(=O)N[C@@H](CO)C(=O)N[C@@H](CC(N)=O)C(=O)N[C@H](C(=O)N[C@@H](Cc1ccc(O)cc1)C(N)=O)[C@@H](C)O)C(C)C)[C@@H](C)O [Example 25, N-alpha-[4-(19-Carboxynonadecanoylamino)butyryl]-Arg-[Arg17]-pramlintide] ({C20 diacid-GABA}-RKCNTATCATQRLANFLRHSSNNFGPILPPTNVGSNTY-NH2; disulfide 3-8) | –
0.2 | CC[C@H](C)[C@H](NC(=O)[C@@H]1CCCN1C(=O)CNC(=O)[C@H](Cc1ccccc1)NC(=O)[C@H](CC(N)=O)NC(=O)[C@H](CC(N)=O)NC(=O)[C@H](CO)NC(=O)[C@H](CO)NC(=O)[C@H](Cc1c[nH]cn1)NC(=O)[C@H](CCCNC(=N)N)NC(=O)[C@H](CC(C)C)NC(=O)[C@H](Cc1ccccc1)NC(=O)[C@H](CC(N)=O)NC(=O)[C@H](C)NC(=O)[C@H](CC(C)C)NC(=O)[C@H](CCCNC(=N)N)NC(=O)[C@H](CCC(N)=O)NC(=O)[C@@H](NC(=O)[C@H](C)NC(=O)[C@@H]1CSSC[C@H](NC(=O)CC[C@H](NC(=O)CCCCCCCCCCCCCCCCCCC(=O)O)C(=O)O)C(=O)N[C@@H](CC(N)=O)C(=O)N[C@@H]([C@@H](C)O)C(=O)N[C@@H](C)C(=O)N[C@@H]([C@@H](C)O)C(=O)N1)[C@@H](C)O)C(=O)N[C@@H](CC(C)C)C(=O)N1CCC[C@H]1C(=O)N1CCC[C@H]1C(=O)N[C@H](C(=O)N[C@@H](CC(N)=O)C(=O)N[C@H](C(=O)NCC(=O)N[C@@H](CO)C(=O)N[C@@H](CC(N)=O)C(=O)N[C@H](C(=O)N[C@@H](Cc1ccc(O)cc1)C(N)=O)[C@@H](C)O)C(C)C)[C@@H](C)O [Example 14, N-alpha-[(S)-4-Carboxy-4-(19-carboxynonadecanoylamino)butyryl]-[Arg17]-pramlintide (2-37)] ({C20 diacid-γGlu}-CNTATCATQRLANFLRHSSNNFGPILPPTNVGSNTY-NH2; disulfide 1-6) | –
0.1 | CC[C@H](C)[C@H](NC(=O)[C@@H]1CCCN1C(=O)CNC(=O)[C@H](Cc1ccccc1)NC(=O)[C@H](CC(N)=O)NC(=O)[C@H](CC(N)=O)NC(=O)[C@H](CO)NC(=O)[C@H](CO)NC(=O)[C@H](Cc1c[nH]cn1)NC(=O)[C@H](CCCNC(=N)N)NC(=O)[C@H](CC(C)C)NC(=O)[C@H](Cc1ccccc1)NC(=O)[C@H](CC(N)=O)NC(=O)[C@H](C)NC(=O)[C@H](CC(C)C)NC(=O)[C@H](CCCNC(=N)N)NC(=O)[C@H](CCC(N)=O)NC(=O)[C@@H](NC(=O)[C@H](C)NC(=O)[C@@H]1CSSC[C@H](NC(=O)[C@H](Cc2c[nH]cn2)NC(=O)CC[C@H](NC(=O)CCCCCCCCCCCCCCCCCCC(=O)O)C(=O)O)C(=O)N[C@@H](CC(N)=O)C(=O)N[C@@H]([C@@H](C)O)C(=O)N[C@@H](C)C(=O)N[C@@H]([C@@H](C)O)C(=O)N1)[C@@H](C)O)C(=O)N[C@@H](CC(C)C)C(=O)N1CCC[C@H]1C(=O)N1CCC[C@H]1C(=O)N[C@H](C(=O)N[C@@H](CC(N)=O)C(=O)N[C@H](C(=O)NCC(=O)N[C@@H](CO)C(=O)N[C@@H](CC(N)=O)C(=O)N[C@H](C(=O)N[C@@H](Cc1ccc(O)cc1)C(N)=O)[C@@H](C)O)C(C)C)[C@@H](C)O [Example 36, N-alpha-[(S)-4-Carboxy-4-(19-carboxynonadecanoylamino)butyryl]-[His1,Arg17]-pramlintide] ({C20 diacid-γGlu}-HCNTATCATQRLANFLRHSSNNFGPILPPTNVGSNTY-NH2; disulfide 2-7) | –

Reference: patent US8895504B2, “Amylin derivatives” (priority 2008, dated 2014)
